This is an account of results in paper PMC12555108, “In‐vitro Assessment of BCRP‐Mediated Efflux of Antiseizure Medications in Human Blood‐Brain Barrier Cell Model” (Journal of Biochemical and Molecular Toxicology, 2025).

As a reminder, the Papp A→B is how fast a substance crosses the layer from the apical side. A high value points to fast passage. Usually Papp B→A stands for the apparent permeability from the basolateral to the apical side of a cell layer. By efflux ratio is commonly meant the permeability from basolateral to apical divided by that in the opposite direction, in the common usage.

Data set [1] has as its target T1, BCRP (Homo sapiens, UniProt Q9UNQ0).
T1 sequence (Q9UNQ0 1-655): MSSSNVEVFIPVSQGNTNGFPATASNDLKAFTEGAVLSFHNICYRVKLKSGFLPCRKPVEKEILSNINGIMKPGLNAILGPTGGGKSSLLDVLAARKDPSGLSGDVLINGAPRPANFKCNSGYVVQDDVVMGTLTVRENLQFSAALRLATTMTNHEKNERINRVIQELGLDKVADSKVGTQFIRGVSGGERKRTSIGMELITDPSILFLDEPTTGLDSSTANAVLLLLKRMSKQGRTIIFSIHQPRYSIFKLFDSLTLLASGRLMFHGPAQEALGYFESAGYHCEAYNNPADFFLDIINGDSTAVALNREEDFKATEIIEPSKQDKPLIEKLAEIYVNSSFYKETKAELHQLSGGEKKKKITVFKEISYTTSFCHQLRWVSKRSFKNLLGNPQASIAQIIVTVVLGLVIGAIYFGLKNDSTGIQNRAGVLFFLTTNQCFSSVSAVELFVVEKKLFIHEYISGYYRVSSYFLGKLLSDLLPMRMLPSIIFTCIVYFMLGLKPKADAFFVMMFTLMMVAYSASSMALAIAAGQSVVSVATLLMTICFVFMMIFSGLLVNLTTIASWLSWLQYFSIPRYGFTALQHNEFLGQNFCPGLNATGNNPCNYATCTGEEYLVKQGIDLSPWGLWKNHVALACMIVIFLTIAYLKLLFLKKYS
Kind of data set: competitive substrate efflux assay (BODIPY-prazosin accumulation) in hCMEC/D3 cells. The format is cell-based. On the procedure:
The potential of ASMs to compete with a known fluorescent substrate of BCRP, BPZ in hCMEC/D3 cells was examined using a competitive substrate efflux assay that has previously been used in various studies. The interaction of CBZ, DCLB, OXC, TPM, and LEVI with BCRP was evaluated. Initially, hCMEC/D3 were seeded in 12‐well plates (cat. no. 150628, Nunc, Thermo Fisher Scientific, MA, USA) at 70‐80% confluency for 24 h. In this study, Ko143 was used for BCRP inhibition. The cultured cells were incubated at 37°C for half an hour in media containing BPZ with either the test ASMs or Ko143. Cells were washed with chilled 1X PBS three times and again incubated at 37°C for 1 h 30 min in BPZ‐free media with or without Ko143. Cells were washed three times with ice‐cold 1X PBS to terminate the assay. Cell lysis was performed by adding 1% triton X‐100, followed by incubating the cells for 15 min at 37°C. 20 µl of cell lysate was placed in 384‐well black assay plates for fluorescence detection (excitation at 488 nm; emission at 530 nm) to Infinite 200 PRO NanoQuant (Tecan, Zurich, Switzerland). The rest of the cell lysate was used for determining protein levels using the BCA protein estimation method to normalize the observed fluorescence intensity with total protein yield. The data were shown as a fold increment in intracellular fluorescence of BPZ relative to the control.

The target of data set [2] is T1, BCRP. Kind of data set: vanadate-sensitive BCRP ATPase assay (membrane vesicles from MCF-7 cells overexpressing BCRP). It counts as biochemical. The arrangement: host or cells: MCF-7 cells overexpressing BCRP. The note with it: 40 µM. As to the method:
To assess the interaction between ASMs and BCRP, a vanadate‐sensitive ATPase assay was performed as per the manufacturer's instructions manual. […] After 10 min, 1x developer solution was added and kept for 2 min. To stop the reaction, 100 µL blocker solution was added and incubated for 30 min. at 37°C. The optical densities were measured at 620 nm using an Infinite 200 PRO NanoQuant (Tecan, Zurich, Switzerland) plate reader. 1 μM Ko143 was used as a positive control for BCRP inhibition. Ko143 was used at a concentration that is known to inhibit BCRP efficiently. The results were expressed as vanadate‐sensitive ATPase activity that is based on the difference in inorganic phosphate released between samples with and without vanadate. This will evaluate the ability of the test ASM to stimulate BCRP's baseline ATPase activity.

In data set [3] the target is T1, BCRP. Kind of data set: bidirectional transport assay across hCMEC/D3 cell monolayer with or without Ko143. The note with it: for transport by BCRP (conclusion of bidirectional transport assay): ER ≥ 1.5 and significantly reduced by Ko143; for Papp A→B at 2 h, 25 µM / Papp A→B at 2 h, […] µM / Papp B→A at 2 h, 25 µM / Papp B→A at 2 h, […] µM / Papp A→B at 2 h, 15 µM / Papp A→B at 2 h, 60 µM / Papp B→A at 2 h, 15 µM / Papp B→A at 2 h, 60 µM / efflux ratio at 2 h / efflux ratio at 2 h, 15 µM / efflux ratio at 2 h, 60 µM / Papp A→B at 2 h, 5 μM / Papp B→A at 2 h, 5 μM / Papp A→B at 2 h, 21 μM / Papp A→B at 2 h, 42 μM / Papp B→A at 2 h, 21 μM / Papp B→A at 2 h, 42 μM / efflux ratio at 2 h, 21 μM / efflux ratio at 2 h, 42 μM: human; for efflux ratio at 2 h: pH 7.4, Efflux ratio (ER) without inhibitor, at all the tested concentrations. As to the method: For transport assays, hCMEC/D3 cells were seeded on collagen type I‐coated Transwell inserts (polycarbonate 12‐well, pore size […]) (cat. no. CLS3460; Corning, NY, USA) at 80% confluency and cultured as described in section 2.5. In brief, the drug was dissolved in Hanks’ balanced salt solution supplemented with 10 mM HEPES, 1 mM Na‐Pyruvate, pH 7.4 at 37°C (transport buffer). Initially, both sides of the chamber were washed with 1X PBS and the assay was performed with pre‐warmed transport buffer. 0.5 ml or 1.5 ml of the drug solution, with or without BCRP‐specific inhibitor Ko143 (1 μM) was added to either the apical side or basolateral side of the monolayer, respectively, and fresh transport buffer was added to the opposite side. Aliquots of 100 μl samples were taken from the opposite sides every 30 min for 2 h, and the same amount of fresh transport buffer was added to the same chamber after each sampling. […] Concentrations of ASMs were evaluated by HPLC or LC/MS. Apparent permeability (Papp) is defined as the transport rate of ASM and efflux ratio (ER) was calculated as the ratio of Papp in the basolateral‐to‐apical (Papp(B→A)) direction to the Papp in the apical‐to‐basolateral (Papp(A→B)) direction. The samples were stored at −20°C until analysis. […] Fluorescence detection of lucifer yellow (excitation at 430 nm, and emission at 535 nm) was carried out with Infinite 200 PRO NanoQuant (Tecan, Zurich, Switzerland). […] All transport assays were performed in triplicate.
The calculation for apparent permeability coefficient, Papp, was performed as described before. Papp=dQr/dt/A×C0 where dQr/dt is the cumulative amount in the receiver side vs time in μM/s
A is the area of the cell monolayer
C0 is the initial concentration of the dosing solution (μM).
And, Efflux ratio=Papp(B−to−A)/Papp(A−to−B)

Details of data set [4]: method as in Johannessen, 2004; Patsalos, 2008; Lee, 2016. To be noted: patients with epilepsy; ref Johannessen, 2004; Patsalos, 2008; Lee, 2016; cited from earlier work.
In data set [5] the target is T1, BCRP. The arrangement: host or cells: MCF-7 cells overexpressing BCRP. The note with it: previous study; cited from earlier work.

In the case of `NC(=O)N1c2ccccc2CC(=O)c2ccccc21` [OXC, oxcarbazepine], at BCRP [1] ([…] and […] µM), the “BPZ accumulation in hCMEC/D3 cells” value is “significantly increased”. At BCRP [2], the “stimulation of BCRP ATPase activity (activation assay)” value is recorded as “significantly stimulated”. For the same molecule, the “transport by BCRP (conclusion of bidirectional transport assay)” value (shortened to “transport by BCRP”) on BCRP [3] (hCMEC/D3 monolayer) is on record as “transports”. At BCRP [3] (pH 7.4), this molecule gave a Papp A→B at 2 h, 25 µM of 26.4 nm/s; a Papp A→B at 2 h, […] µM of 165 nm/s; a Papp B→A at 2 h, 25 µM of 47.2 nm/s; a Papp B→A at 2 h, […] µM of 394 nm/s. Further, at BCRP [3] (pH 7.4, with Ko143 1 μM), the Papp A→B at 2 h, 25 µM is 32.1 nm/s; the apparent permeability from apical to basolateral (Papp A→B) at 2 h, […] µM is 1400 nm/s; the Papp B→A at 2 h, 25 µM is 35.9 nm/s; the Papp B→A at 2 h, […] µM worked out at 1690 nm/s.

`CC1(C)O[C@@H]2[C@@H](CO[C@@]3(COS(N)(=O)=O)OC(C)(C)O[C@@H]23)O1` [TPM, topiramate]: the “intracellular accumulation of BPZ in hCMEC/D3 cells” value (“intracellular accumulation of BPZ” below) at BCRP [1] is recorded as “did not affect”. Also, the “Therapeutic plasma concentration range” value in data set [4] is 15 to 60 µM. Also, on BCRP [5], the “stimulation of BCRP ATPase activity” value was “no significant stimulation”. Besides, on BCRP [3] (hCMEC/D3 monolayer), the “transport by BCRP” value is reported as “not” and the efflux ratio at 2 h was < 1.5. At BCRP [3] (pH 7.4), this molecule had a Papp A→B at 2 h, 15 µM of 7.1 nm/s; a Papp A→B at 2 h, 60 µM of 200 nm/s; a Papp B→A at 2 h, 15 µM of 7.1 nm/s; a Papp B→A at 2 h, 60 µM of 255 nm/s. For the same molecule, the efflux ratio at 2 h, 15 µM on BCRP [3] (pH 7.4, Efflux ratio (ER), hCMEC/D3 without inhibitor Ko143, 15 μM, hCMEC/D3 monolayer) is 1.06. The efflux ratio at 2 h, 60 µM at BCRP [3] (pH 7.4, Efflux ratio (ER), hCMEC/D3 without inhibitor Ko143, 60 μM, hCMEC/D3 monolayer) came to 1.17. For the same molecule, at BCRP [3] (pH 7.4, with Ko143 1 μM), the Papp A→B at 2 h, 15 µM turned out to be 123 nm/s; the Papp A→B at 2 h, 60 µM stood at 1590 nm/s; the Papp B→A at 2 h, 15 µM is 142 nm/s; the Papp B→A at 2 h, 60 µM was determined as 1900 nm/s. Also, the efflux ratio at 2 h, 15 µM at BCRP [3] (pH 7.4, with Ko143 1 µM, Efflux ratio (ER), hCMEC/D3 with inhibitor Ko143, 15 μM, hCMEC/D3 monolayer, 1 μM Ko143) is 1.16. Further, at BCRP [3] (pH 7.4, with Ko143 1 µM, Efflux ratio (ER), hCMEC/D3 with inhibitor Ko143, 60 μM, hCMEC/D3 monolayer, 1 μM Ko143), the efflux ratio at 2 h, 60 µM worked out at 1.13.

On to `CC[C@@H](C(N)=O)N1CCCC1=O` [LEVI, levetiracetam], for which the “intracellular accumulation of BPZ” value on BCRP [1] is reported as “did not affect”. Further, in data set [4], the “Therapeutic plasma concentration range” value was 35 to 120 µM. On BCRP [5], the “stimulation of BCRP ATPase activity” value was “no significant stimulation”. Also, at BCRP [3] (hCMEC/D3 monolayer), the “transport by BCRP” value is reported as “not” and the efflux ratio at 2 h is < 1.5. The directional transport result at BCRP [3] (hCMEC/D3 monolayer, data not shown) is “did not show any directional transport”.

For `O=C1c2c(O)ccc(O)c2C(=O)c2c(NCCNCCO)ccc(NCCNCCO)c21` [MXR, mitoxantrone], the Papp A→B at 2 h, 5 μM on BCRP [3] (pH 7.4) is 51 nm/s; at BCRP [3] (pH 7.4, with Ko143 1 μM) it was 102 nm/s. Further, the apparent permeability from basolateral to apical (Papp B→A) at 2 h, 5 μM on BCRP [3] (pH 7.4) is 127 nm/s; on BCRP [3] (pH 7.4, with Ko143 1 μM) it was 106 nm/s.

With `NC(=O)N1c2ccccc2C=Cc2ccccc21` [CBZ, carbamazepine], the “intracellular accumulation of BPZ” value on BCRP [1] is reported as “did not affect”. In addition, in data set [4], the “Therapeutic plasma concentration range” value is 15 to 45 µM. Moreover, at BCRP [5], the “stimulation of BCRP ATPase activity” value is reported as “no significant stimulation”. On BCRP [3] (hCMEC/D3 monolayer), the “transport by BCRP” value was “not” and the efflux ratio at 2 h was < 1.5. At BCRP [3] (pH 7.4), this molecule came in with an apical-to-basolateral permeability (Papp A→B) at 2 h, 21 μM of 33.7 nm/s; a Papp A→B at 2 h, 42 μM of 33.7 nm/s; a Papp B→A at 2 h, 21 μM of 42.7 nm/s; a Papp B→A at 2 h, 42 μM of 40.4 nm/s. The efflux ratio at 2 h, 21 μM at BCRP [3] (pH 7.4, Efflux ratio (ER), hCMEC/D3 without inhibitor Ko143, 21 μM, hCMEC/D3 monolayer) was 1.23. Also, the efflux ratio at 2 h, 42 μM on BCRP [3] (pH 7.4, Efflux ratio (ER), hCMEC/D3 without inhibitor Ko143, 42 μM, hCMEC/D3 monolayer) came to 1.18. On BCRP [3] (pH 7.4, with Ko143 1 μM), this molecule registered a Papp A→B at 2 h, 21 μM of 47.2 nm/s; a Papp A→B at 2 h, 42 μM of 38.2 nm/s; a Papp B→A at 2 h, 21 μM of 30.3 nm/s; a basolateral-to-apical permeability (Papp B→A) at 2 h, 42 μM of 42.7 nm/s. Moreover, the efflux ratio at 2 h, 21 μM on BCRP [3] (pH 7.4, with Ko143 1 μM, Efflux ratio (ER), hCMEC/D3 with inhibitor Ko143, 21 μM, hCMEC/D3 monolayer, 1 μM Ko143) turned out to be 0.98. The efflux ratio at 2 h, 42 μM at BCRP [3] (pH 7.4, with Ko143 1 μM, Efflux ratio (ER), hCMEC/D3 with inhibitor Ko143, 42 μM, hCMEC/D3 monolayer, 1 μM Ko143) was found to be 1.12.
